In patent US20060069132A1, “Azolecarboxamide herbicides” (priority 2004, published 2006):

Assays:
lambsquarters = test: Test B pre-/postemergence herbicide test; assay type: in vivo, Chenopodium album; details: for Lambsquarters plant response rating: postemergence, visual rating, scale 0 (no effect) to 100 (complete control)
Outline: (§1)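 Test chemicals in a non-phytotoxic solvent mixture with surfactant were applied preemergence to seeded species and postemergence to plants 2-18 cm tall (1- to 4-leaf stage); rice and barnyardgrass were also tested in a flooded paddy at the 2-leaf stage. Visual rating versus controls after 13-15 days in greenhouse, scale 0 (no effect) to 100 (complete control).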

velvetleaf = test: Test B pre-/postemergence herbicide test; assay type: in vivo, Abutilon theophrasti; details: for Velvetleaf plant response rating: postemergence, visual rating, scale 0 (no effect) to 100 (complete control)
Outline: as §1

cocklebur = test: Test B pre-/postemergence herbicide test; assay type: in vivo, Xanthium strumarium; details: for Cocklebur plant response rating: postemergence, visual rating, scale 0 (no effect) to 100 (complete control)
Outline: (§2)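 Species tested were Echinochloa crus-galli, Ipomoea coccinea, Xanthium strumarium and Oryza sativa, treated both before emergence and at the 1- to 4-leaf stage; rice and barnyardgrass were also tested under flooding at 2 leaves. Greenhouse incubation lasted 13–15 days before visual 0–100 scoring.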

rice [1] = test: Test B pre-/postemergence herbicide test; assay type: in vivo, Oryza sativa; details: preemergence
Outline: as §1

wheat = test: Test B postemergence herbicide test; assay type: in vivo, Triticum aestivum; parameters: key to Wheat plant response rating: 0 = no effect, 100 = complete control; details: postemergence, visual rating, scale 0 (no effect) to 100 (complete control)
Outline: (§3)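 Treated at 2-leaf (paddy) or 1–4-leaf, 2–18 cm (postemergence); greenhouse 13–15 d; visual score vs control, 0 none to 100 complete control; dash = not tested.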

ducksalad [2] = test: Test C flooded paddy test; assay type: in vivo, Heteranthera limosa
Surinam grass = test: Test B pre-/postemergence herbicide test; assay type: in vivo, Urochloa decumbens; details: for Surinam Grass plant response rating: postemergence, visual rating, scale 0 (no effect) to 100 (complete control)
Outline: as §1

barnyardgrass [3] = test: Test B flooded paddy test; assay type: in vivo, Echinochloa crus-galli; details: 1000 g ai/ha, visual rating, scale 0 to 100 (0 no effect, 100 complete control), 13 to 15 days
Outline: (§4)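 Plants grow to 1- to 4-leaf stage (2–18 cm) for postemergence spraying, or to 2-leaf stage for the paddy test. Formulated compound is applied. Greenhouse holding lasts 13–15 days. Response is scored visually relative to controls, 0 no effect to 100 complete control; a dash means no result.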

barnyardgrass [4] = test: Test B pre-/postemergence herbicide test; assay type: in vivo, Echinochloa crus-galli; details: for Barnyardgrass plant response rating: postemergence, visual rating, scale 0 (no effect) to 100 (complete control)
Outline: as §2

rice [5] = test: Test C flooded paddy test; assay type: in vivo, Oryza sativa
Outline: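 Plants were grown to the 1- to 4-leaf stage (2–18 cm) and then treated postemergence, or grown to the 2-leaf stage for the flooded paddy test. They were held in a greenhouse for 12 to 14 days and then scored by eye against controls, where 0 is no effect and 100 is complete control.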

large crabgrass = test: Test B pre-/postemergence herbicide test; assay type: in vivo, Digitaria sanguinalis; details: for Crabgrass, Large plant response rating: postemergence, visual rating, scale 0 (no effect) to 100 (complete control)
Outline: as §1

corn = test: Test B pre-/postemergence herbicide test; assay type: in vivo, Zea mays; details: for Corn plant response rating: postemergence, visual rating, scale 0 (no effect) to 100 (complete control)
Outline: as §1

[6] = test system: small flower umbrella sedge; test: Test B flooded paddy test; assay type: in vivo, Cyperus difformis; details: 1000 g ai/ha, visual rating, scale 0 to 100 (0 no effect, 100 complete control), 13 to 15 days
Outline: as §4

blackgrass = test: Test B postemergence herbicide test; assay type: in vivo, Alopecurus myosuroides; details: postemergence, visual rating, scale 0 (no effect) to 100 (complete control)
Outline: as §4

barnyardgrass [7] = test: Test C flooded paddy test; assay type: in vivo, Echinochloa crus-galli
Outline: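 After a postemergence application at 1 to 4 leaves (plants 2–18 cm high), or at 2 leaves for barnyardgrass in flooded paddy, plants stayed in the greenhouse for 12 to 14 days. Damage was then judged visually relative to control plants, with 100 indicating complete control.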

[8] = test system: smallflower umbrella sedge; test: Test C flooded paddy test; assay type: in vivo, Cyperus difformis
pigweed = test: Test B pre-/postemergence herbicide test; assay type: in vivo, Amaranthus retroflexus; details: for Pigweed plant response rating: postemergence, visual rating, scale 0 (no effect) to 100 (complete control)
Outline: as §1

rice [9] = test: Test B flooded paddy test; assay type: in vivo, Oryza sativa; details: 1000 g ai/ha, visual rating, scale 0 to 100 (0 no effect, 100 complete control), 13 to 15 days
Outline: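 Paddy species grown to the 2-leaf stage under flooding; blackgrass sprayed postemergence at 2–18 cm (1- to 4-leaf stage). Plants kept in a greenhouse for 13 to 15 days, then visually rated against controls on 0 (no effect) to 100 (complete control).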

morningglory = test: Test B pre-/postemergence herbicide test; assay type: in vivo, Ipomoea coccinea; details: for Morningglory plant response rating: postemergence, visual rating, scale 0 (no effect) to 100 (complete control)
Outline: as §2

giant foxtail = test: Test B pre-/postemergence herbicide test; assay type: in vivo, Setaria faberi; details: for Foxtail, Giant plant response rating: postemergence, visual rating, scale 0 (no effect) to 100 (complete control)
Outline: as §1

ducksalad [10] = test: Test B flooded paddy test; assay type: in vivo, Heteranthera limosa; details: 1000 g ai/ha, visual rating, scale 0 to 100 (0 no effect, 100 complete control), 13 to 15 days
Outline: as §4

wild oat = test: Test B postemergence herbicide test; assay type: in vivo, Avena fatua; details: postemergence, visual rating, scale 0 (no effect) to 100 (complete control)
Outline: as §3

[11] = 125 g ai/ha, 0 = no effect, 100 = complete control, preemergence
[12] = 500 g ai/ha, visual rating 0-100, 0 no effect, 100 complete control, preemergence
[13] = 62 g ai/ha, scale 0 to 100 (0 no effect, 100 complete control)
[14] = 125 g ai/ha, scale 0 to 100 (0 no effect, 100 complete control)
[15] = 250 g ai/ha, scale of 0 to 100, 0 is no effect, 100 is complete control
[16] = 500 g ai/ha, visual rating after 12 to 14 days, scale 0 to 100 (0 no effect, 100 complete control)

## CCNC(=O)c1cccc(NC(=O)c2cn(C(C)(C)C)nc2CC)c1 [Compound 181]
lambsquarters; [11]
  Lambsquarters plant response rating (0 to 100 scale): 50
lambsquarters; [12]
  Plant response rating, Lambsquarters: 100
lambsquarters; 125 g ai/ha
  Lambsquarters plant response rating: 70
lambsquarters; 500 g ai/ha
  Lambsquarters plant response rating: 90
velvetleaf; [11]
  Velvetleaf plant response rating (0 to 100 scale): 0
velvetleaf; [12]
  Plant response rating, Velvetleaf: 10
velvetleaf; 125 g ai/ha
  Velvetleaf plant response rating: 10
velvetleaf; 500 g ai/ha
  Velvetleaf plant response rating: 20
cocklebur; [11]
  Cocklebur plant response rating (0 to 100 scale): 10
cocklebur; [12]
  Plant response rating, Cocklebur: 20
cocklebur; 125 g ai/ha
  Cocklebur plant response rating: 20
cocklebur; 500 g ai/ha
  Cocklebur plant response rating: 70
Rice [1]; 125 g ai/ha, 0 = no effect, 100 = complete control
  Rice plant response rating (0 to 100 scale): 40
Rice [1]; 500 g ai/ha, visual rating 0-100, 0 no effect, 100 complete control
  Plant response rating, Rice: 70
wheat; 125 g ai/ha
  Wheat plant response rating: 0
wheat; 500 g ai/ha
  Wheat plant response rating: 0
Ducksalad [2]; [13]
  Ducksalad plant response rating: 0
Ducksalad [2]; [14]
  Ducksalad plant response rating: 0
Ducksalad [2]; [15]
  Ducksalad plant response rating: 0
Ducksalad [2]; [16]
  Plant response rating, Ducksalad: 80
Surinam grass; [11]
  Surinam Grass plant response rating (0 to 100 scale): 30
Surinam grass; [12]
  Plant response rating, Surinam Grass: 70
Surinam grass; 125 g ai/ha
  Surinam Grass plant response rating: 20
Surinam grass; 500 g ai/ha
  Surinam Grass plant response rating: 20
Barnyardgrass [3]
  Barnyardgrass plant response rating: 80
Barnyardgrass [4]; [11]
  Barnyardgrass plant response rating (0 to 100 scale): 30
Barnyardgrass [4]; [12]
  Plant response rating, Barnyardgrass: 90
Barnyardgrass [4]; 125 g ai/ha
  Barnyardgrass plant response rating: 0
Barnyardgrass [4]; 500 g ai/ha
  Barnyardgrass plant response rating: 10
Rice [5]; [13]
  Rice plant response rating: 0
Rice [5]; [14]
  Rice plant response rating: 0
Rice [5]; [15]
  Rice plant response rating: 0
Rice [5]; [16]
  Plant response rating, Rice: 0
Large crabgrass; [11]
  Crabgrass, Large plant response rating (0 to 100 scale): 50
Large crabgrass; [12]
  Plant response rating, Crabgrass, Large: 100
Large crabgrass; 125 g ai/ha
  Crabgrass, Large plant response rating: 10
Large crabgrass; 500 g ai/ha
  Crabgrass, Large plant response rating: 20
corn; [11]
  Corn plant response rating (0 to 100 scale): 0
corn; [12]
  Plant response rating, Corn: 40
corn; 125 g ai/ha
  Corn plant response rating: 20
corn; 500 g ai/ha
  Corn plant response rating: 20
[6]
  Sedge, Umbrella plant response rating: 80
blackgrass; 125 g ai/ha
  Blackgrass plant response rating: 0
blackgrass; 500 g ai/ha
  Blackgrass plant response rating: 10
Barnyardgrass [7]; [13]
  Barnyardgrass plant response rating: 0
Barnyardgrass [7]; 125 g ai/ha, scale of 0 to 100, 0 is no effect, 100 is complete control
  Barnyardgrass plant response rating: 0
Barnyardgrass [7]; [15]
  Barnyardgrass plant response rating: 0
Barnyardgrass [7]; [16]
  Plant response rating, Barnyardgrass: 0
[8]; [13]
  Sedge, Umbrella plant response rating: 10
[8]; [14]
  Sedge, Umbrella plant response rating: 20
[8]; [15]
  Sedge, Umbrella plant response rating: 80
[8]; [16]
  Plant response rating, Sedge, Umbrella: 85
pigweed; [11]
  Pigweed plant response rating (0 to 100 scale): 30
pigweed; [12]
  Plant response rating, Pigweed: 100
pigweed; 125 g ai/ha
  Pigweed plant response rating: 40
pigweed; 500 g ai/ha
  Pigweed plant response rating: 90
Rice [9]
  Rice plant response rating: 80
morningglory; [11]
  Morningglory plant response rating (0 to 100 scale): 0
morningglory; [12]
  Plant response rating, Morningglory: 20
morningglory; 125 g ai/ha
  Morningglory plant response rating: 20
morningglory; 500 g ai/ha
  Morningglory plant response rating: 20
Giant foxtail; [11]
  Foxtail, Giant plant response rating (0 to 100 scale): 20
Giant foxtail; [12]
  Plant response rating, Foxtail, Giant: 100
Giant foxtail; 125 g ai/ha
  Foxtail, Giant plant response rating: 20
Giant foxtail; 500 g ai/ha
  Foxtail, Giant plant response rating: 20
Ducksalad [10]
  Ducksalad plant response rating: 90
Wild oat; 125 g ai/ha
  Oat, Wild plant response rating: 20
Wild oat; 500 g ai/ha
  Oat, Wild plant response rating: 30
